# Measured values from patent publication US20050113450A1, “Antibacterial agents” (priority 2002, published 2005).
# System: SA 9218
# Assay: MIC by standard agar dilution method
# Assay type: cell-based
# Settings: Mueller Hinton agar, 10^4 to 10^5 cells per spot, incubated overnight at 35° C., lowest concentration that inhibits visible growth
# From the text: The antibacterial agents of this invention have useful activity against a variety of organisms. The in vitro activity of compounds of this invention can be assessed by standard testing procedures such as the determination of minimum inhibitory concentration (MIC) by agar dilution as described in “Approved Standard. Methods for Dilution Antimicrobial Susceptibility Tests for Bacteria That Grow Aerobically”, 3rd. ed., published 1993 by the National Committee for Clinical Laboratory Standards, Villanova, Pa., USA. The in vitro MICs of test compounds were determined by a standard agar dilution method. A stock drug solution of each analog was prepared in the preferred solvent, usually DMSO:H2O (1:3). Serial 2-fold dilutions of each sample are made using 1.0 ml aliquots of sterile distilled water. To each 1.0 ml aliquot of drug was added 9 ml of molten Mueller Hinton agar medium. The drug-supplemented agar was mixed, poured into 15×100 mm petri dishes, and allowed to solidify and dry prior to inoculation. Vials of each of the test organisms are maintained frozen in the vapor phase of a liquid nitrogen freezer. Test cultures are grown overnight at 35° C. on the medium appropriate for the organism. Colonies are harvested with a sterile swab, and cell suspensions are prepared in Trypticase Soy broth (TSB) to equal the turbidity of a 0.5 McFarland standard. A 1:20 dilution of each suspension was made in TSB. The plates containing the drug supplemented agar are inoculated with a 0.001 ml drop of the cell suspension using a Steers replicator, yielding approximately 10^4 to 10^5 cells per spot. The plates are incubated overnight at 35° C. Following incubation the Minimum Inhibitory Concentration (MIC μg/ml), the lowest concentration of drug that inhibits visible growth of the organism, was read and recorded.
row,SMILES,MIC
1,CCOCC(=NO)c1ccc(C(=O)Nc2ccc(Cl)cc2C(=O)O)cc1,64 µg/mL
2,CC(=O)Oc1ccc(N2C(=O)c3ccc(C(=O)Nc4ccc(Br)cc4C(=O)O)cc3C2=O)cc1,64 µg/mL
3,O=C(Nc1ccc(Cl)cc1C(=O)O)c1ccc(C(=NO)C2CCCO2)cc1 (stereo not shown),32 µg/mL
4,COc1ccc(C(=O)Nc2ccc(Br)cc2C(=O)O)cc1S(=O)(=O)NCCc1ccc(N)cc1,128 µg/mL
5,O=C(Nc1ccc(Br)cc1C(=O)O)c1cccc(S(=O)(=O)NCCCn2ccnc2)c1,64 µg/mL
6,O=C(Nc1ccc(Br)cc1C(=O)O)c1ccc(S(=O)(=O)NC2Cc3ccccc3C2)cc1,32 µg/mL
7,CN(C)c1ccc(CNS(=O)(=O)c2cc(C(=O)Nc3ccc(Br)cc3C(=O)O)ccc2Br)cc1,64 µg/mL
8,CCN(Cc1ccncc1)S(=O)(=O)c1ccc(C(=O)Nc2ccc(Br)cc2C(=O)O)cc1,32 µg/mL
9,CN(C)c1ccc(CNS(=O)(=O)c2cccc(C(=O)Nc3ccc(Br)cc3C(=O)O)c2)cc1,64 µg/mL
10,Cc1ccc(C(=O)Nc2ccc(Br)cc2C(=O)O)cc1S(=O)(=O)NCc1ccc(N(C)C)cc1,128 µg/mL
11,CN(C)c1ccc(CNS(=O)(=O)c2ccc(Br)c(C(=O)Nc3ccc(Br)cc3C(=O)O)c2)cc1,16 µg/mL
12,Cc1ccc(C(=O)Nc2ccc(Br)cc2C(=O)O)cc1S(=O)(=O)N1CCc2ccccc21,1 µg/mL
13,CN(C)c1ccc(CNS(=O)(=O)c2ccc(C(=O)Nc3ccc(Br)cc3C(=O)O)cc2)cc1,128 µg/mL
14,O=C(Nc1ccc(Br)cc1C(=O)O)c1cc(S(=O)(=O)N2CCc3ccccc32)c(F)cc1Cl,8 µg/mL
15,Cc1ccc(C(=O)Nc2ccc(Br)cc2C(=O)O)cc1S(=O)(=O)Nc1ccc(Cl)c2ccccc12,8 µg/mL
16,Cc1ccc(S(=O)(=O)Nc2ccc3c(c2)OCCO3)cc1C(=O)Nc1ccc(Br)cc1C(=O)O,64 µg/mL
17,COc1ccc(C(=O)Nc2ccc(Br)cc2C(=O)O)cc1S(=O)(=O)N1CCc2ccccc21,4 µg/mL
18,O=C(Nc1ccc(Br)cc1C(=O)O)c1cc(S(=O)(=O)Nc2ccc3c(c2)OCCO3)ccc1Br,0.5 µg/mL
19,Cc1ccc(C(=O)Nc2ccc(Br)cc2C(=O)O)cc1S(=O)(=O)Nc1ccc2c(c1)OCCO2,1 µg/mL
20,O=C(Nc1ccc(Br)cc1C(=O)O)c1ccc(S(=O)(=O)Nc2ccc3c(c2)OCCO3)cc1,16 µg/mL
21,COc1ccc(C(=O)Nc2ccc(Br)cc2C(=O)O)cc1S(=O)(=O)Nc1ccc2c(c1)OCCO2,8 µg/mL
22,O=C(Nc1ccc(Br)cc1C(=O)O)c1cccc(S(=O)(=O)Nc2ccc(N3CCOCC3)cc2)c1,32 µg/mL
23,O=C(Nc1ccc(Br)cc1C(=O)O)c1cccc(S(=O)(=O)Nc2ccc3c(c2)OCCO3)c1,4 µg/mL

row,SMILES,MIC
1,CCN(CC)c1ccc(NS(=O)(=O)c2cc(C(=O)Nc3ccc(Br)cc3C(=O)O)ccc2C)cc1,64 µg/mL
2,COc1ccc(C(=O)Nc2ccc(Br)cc2C(=O)O)cc1S(=O)(=O)Nc1ccc(Cl)cc1,16 µg/mL
3,CCN(CC)c1ccc(NS(=O)(=O)c2cccc(C(=O)Nc3ccc(Br)cc3C(=O)O)c2)cc1,128 µg/mL
4,O=C(Nc1ccc(Br)cc1C(=O)O)c1ccc(S(=O)(=O)Nc2ccc(N3CCOCC3)cc2)cc1,64 µg/mL
5,Cc1ccc(C(=O)Nc2ccc(Br)cc2C(=O)O)cc1S(=O)(=O)N1CCc2ccc(Cl)cc21,1 µg/mL
6,CCN(CC)c1ccc(NS(=O)(=O)c2cc(C(=O)Nc3ccc(Br)cc3C(=O)O)ccc2Br)cc1,64 µg/mL
7,O=C(Nc1ccc(Br)cc1C(=O)O)c1cccc(S(=O)(=O)N2CCc3ccc(Cl)cc32)c1,2 µg/mL
8,CCN(CC)c1ccc(NS(=O)(=O)c2ccc(C(=O)Nc3ccc(Br)cc3C(=O)O)cc2)cc1,32 µg/mL
9,O=C(Nc1ccc(Br)cc1C(=O)O)c1ccc(S(=O)(=O)C2CCc3ccc(Cl)cc32)cc1 (stereo not shown),0.5 µg/mL
10,O=C(Nc1ccc(Br)cc1C(=O)O)c1cc(S(=O)(=O)N2CCc3ccc(Cl)cc32)ccc1Br,2 µg/mL
11,O=C(Nc1ccc(Br)cc1C(=O)O)c1cc(F)ccc1F,128 µg/mL
12,O=C(Nc1ccc(Br)cc1C(=O)O)c1cc(S(=O)(=O)N2CCc3ccc(Cl)cc32)c(F)cc1Cl,16 µg/mL
13,O=C(Nc1ccc(Br)cc1C(=O)O)c1cccc(Br)c1,8 µg/mL
14,O=C(O)c1cc(Br)ccc1NC(=O)c1cccc2c1-c1ccccc1C2=O,128 µg/mL
15,O=C(Nc1ccc(Br)cc1C(=O)O)c1cccc(Cl)c1,8 µg/mL
16,N#Cc1cccc(C(=O)Nc2ccc(Br)cc2C(=O)O)c1,> 128 µg/mL
17,CN(C)c1cccc(C(=O)Nc2ccc(Br)cc2C(=O)O)c1,32 µg/mL
18,O=C(Nc1ccc(Br)cc1C(=O)O)c1cccc(F)c1,64 µg/mL
19,COc1cc(C(=O)Nc2ccc(Br)cc2C(=O)O)cc(OC)c1OC,32 µg/mL
20,O=C(Nc1ccc(Br)cc1C(=O)O)c1cc(Cl)cc(Cl)c1,8 µg/mL
21,CCOC(=O)Oc1c(OC)cc(C(=O)Nc2ccc(Br)cc2C(=O)O)cc1OC,128 µg/mL
22,COc1ccc(C(=O)Nc2ccc(Br)cc2C(=O)O)cc1OC,128 µg/mL
23,CCOc1cc(C(=O)Nc2ccc(Br)cc2C(=O)O)cc(OCC)c1OCC,32 µg/mL
